# Activity calls are given as the source filed them.
# Legend:
# Type in all cases: functional
# [1] = biological target: T1, Replicative DNA helicase DnaB (Mycobacterium tuberculosis, UniProt P9WMR3); assay: DnaB intein splicing inhibitors, dose response, biochemical, cell-free fluorescence (AID 449749)
# T1 sequence (P9WMR3 whole entry): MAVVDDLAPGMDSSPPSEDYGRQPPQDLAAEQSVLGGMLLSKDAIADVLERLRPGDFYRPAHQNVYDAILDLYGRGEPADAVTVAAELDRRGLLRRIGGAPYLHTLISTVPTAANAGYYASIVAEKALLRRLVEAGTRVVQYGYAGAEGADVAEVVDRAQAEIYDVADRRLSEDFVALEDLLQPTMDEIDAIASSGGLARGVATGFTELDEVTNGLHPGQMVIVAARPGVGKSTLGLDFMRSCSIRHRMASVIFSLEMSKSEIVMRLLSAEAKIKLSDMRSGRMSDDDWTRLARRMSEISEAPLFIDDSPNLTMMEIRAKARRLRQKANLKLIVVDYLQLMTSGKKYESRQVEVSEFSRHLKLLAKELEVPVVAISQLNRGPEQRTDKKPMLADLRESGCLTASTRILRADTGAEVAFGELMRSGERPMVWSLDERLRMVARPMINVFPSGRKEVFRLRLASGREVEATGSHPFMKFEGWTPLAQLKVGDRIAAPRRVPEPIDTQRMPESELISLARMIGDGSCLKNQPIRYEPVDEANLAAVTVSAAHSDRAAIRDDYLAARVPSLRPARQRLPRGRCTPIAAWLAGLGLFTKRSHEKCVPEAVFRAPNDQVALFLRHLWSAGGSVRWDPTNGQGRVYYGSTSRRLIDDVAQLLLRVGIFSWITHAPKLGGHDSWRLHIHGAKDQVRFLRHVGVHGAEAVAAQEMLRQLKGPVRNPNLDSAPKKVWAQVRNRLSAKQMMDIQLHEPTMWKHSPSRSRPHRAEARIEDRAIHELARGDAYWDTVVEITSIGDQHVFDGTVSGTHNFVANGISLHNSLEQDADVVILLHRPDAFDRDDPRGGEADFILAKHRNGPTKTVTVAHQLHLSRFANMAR
# [2] = biological target: T2, Apoptotic protease-activating factor 1 (Homo sapiens, UniProt O14727)
# T2 sequence (O14727 whole entry): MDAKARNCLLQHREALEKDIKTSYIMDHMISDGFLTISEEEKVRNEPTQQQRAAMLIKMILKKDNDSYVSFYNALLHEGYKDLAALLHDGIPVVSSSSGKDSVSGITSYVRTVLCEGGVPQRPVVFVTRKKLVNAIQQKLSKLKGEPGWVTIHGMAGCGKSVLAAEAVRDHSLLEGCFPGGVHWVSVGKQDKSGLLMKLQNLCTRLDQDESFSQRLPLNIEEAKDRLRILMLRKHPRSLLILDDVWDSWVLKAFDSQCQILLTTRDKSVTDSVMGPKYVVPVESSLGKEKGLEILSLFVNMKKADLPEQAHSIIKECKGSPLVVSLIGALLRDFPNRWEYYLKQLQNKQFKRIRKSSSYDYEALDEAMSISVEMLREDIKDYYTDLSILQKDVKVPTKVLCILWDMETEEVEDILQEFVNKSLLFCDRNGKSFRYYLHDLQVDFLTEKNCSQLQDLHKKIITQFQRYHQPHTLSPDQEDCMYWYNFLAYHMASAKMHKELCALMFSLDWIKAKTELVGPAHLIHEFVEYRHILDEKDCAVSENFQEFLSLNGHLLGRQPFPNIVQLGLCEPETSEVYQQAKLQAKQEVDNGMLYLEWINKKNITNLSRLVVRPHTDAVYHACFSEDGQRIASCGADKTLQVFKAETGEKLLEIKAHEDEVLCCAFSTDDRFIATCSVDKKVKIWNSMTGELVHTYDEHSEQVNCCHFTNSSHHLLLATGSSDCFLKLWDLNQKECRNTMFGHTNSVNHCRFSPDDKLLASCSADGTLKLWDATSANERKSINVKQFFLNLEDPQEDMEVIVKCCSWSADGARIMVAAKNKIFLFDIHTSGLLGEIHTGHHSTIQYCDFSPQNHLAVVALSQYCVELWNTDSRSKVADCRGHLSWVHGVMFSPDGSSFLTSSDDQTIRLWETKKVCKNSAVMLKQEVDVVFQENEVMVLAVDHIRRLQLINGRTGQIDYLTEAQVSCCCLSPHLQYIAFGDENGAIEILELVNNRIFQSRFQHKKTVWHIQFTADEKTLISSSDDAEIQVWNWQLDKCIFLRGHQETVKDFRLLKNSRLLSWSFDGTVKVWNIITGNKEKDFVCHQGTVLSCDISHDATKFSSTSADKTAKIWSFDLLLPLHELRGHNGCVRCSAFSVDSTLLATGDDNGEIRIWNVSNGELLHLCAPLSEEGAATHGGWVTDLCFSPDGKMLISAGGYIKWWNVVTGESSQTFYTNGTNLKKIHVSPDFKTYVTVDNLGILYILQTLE
# Protein RecA = biological target: T3, Protein RecA (Mycobacterium tuberculosis, UniProt P9WHJ3); assay: Fluorescence Cell-Free Homogeneous Dose Retest to Identify Inhibitors of RecA-Intein Splicing Activity. [Related pubchem assays (depositor defined):AID2097, AID2223, AID489010, AID492950]
# T3 sequence (P9WHJ3 whole entry): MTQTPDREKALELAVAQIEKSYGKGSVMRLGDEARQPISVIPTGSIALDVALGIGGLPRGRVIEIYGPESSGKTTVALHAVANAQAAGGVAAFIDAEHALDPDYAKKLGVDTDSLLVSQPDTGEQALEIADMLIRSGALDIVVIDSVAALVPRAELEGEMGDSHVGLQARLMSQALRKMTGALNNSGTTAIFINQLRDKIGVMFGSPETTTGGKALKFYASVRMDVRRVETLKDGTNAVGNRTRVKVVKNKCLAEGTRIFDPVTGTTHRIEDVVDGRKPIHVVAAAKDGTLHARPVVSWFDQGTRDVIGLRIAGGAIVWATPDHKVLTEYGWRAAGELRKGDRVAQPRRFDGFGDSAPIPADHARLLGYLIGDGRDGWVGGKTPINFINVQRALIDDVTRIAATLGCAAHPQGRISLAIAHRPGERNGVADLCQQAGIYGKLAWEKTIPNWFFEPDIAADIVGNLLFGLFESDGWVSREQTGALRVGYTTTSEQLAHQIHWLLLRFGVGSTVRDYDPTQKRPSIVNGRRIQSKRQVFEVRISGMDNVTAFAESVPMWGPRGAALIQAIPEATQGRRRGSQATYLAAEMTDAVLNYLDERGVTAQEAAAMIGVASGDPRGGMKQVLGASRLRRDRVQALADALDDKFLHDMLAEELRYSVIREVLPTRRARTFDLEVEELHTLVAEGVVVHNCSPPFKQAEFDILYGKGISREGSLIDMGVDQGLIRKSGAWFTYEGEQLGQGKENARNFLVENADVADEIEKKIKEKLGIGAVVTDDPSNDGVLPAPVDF
Compound,AC50 [1],IC50 [2],EC50 (Protein RecA)
CCCCCCCCCCOC(=O)Cn1c(COc2cccc(OC)c2)[n+](C)c2ccccc21,4320 nM (active),10200 nM (active),9700 nM (active)
COc1cc(OC)c(NC2=CC(=O)C(=O)c3ccccc32)cc1Cl,–,2120 nM (active),–
CCc1ccc(S(=O)(=O)/N=C2\C=C(Nc3cccc(C(=O)O)c3)C(=O)c3ccccc32)cc1,276 nM (active),7070 nM (active),216 nM (active)
COc1cc2c(cc1OC)-c1c(OC)c(OC)cc3c1C(C2)N(C)CC3 (centres undefined),550 nM (active),–,614 nM (active)

# From ChEMBL document CHEMBL1201862, “PubChem BioAssay data set” (2004)
